Experiments:
PDGFRβ = PDGFRβ (Rattus norvegicus (Rat), UniProt Q05030); test: PDGFRβ Cellular Assay (PDGFRb P-Y751 HTRF, PDGF-BB stimulated A10 cells); type: cell-based; details: A10 cells, 3 hours compound, 15 ng/mL PDGFbb for 10 minutes; read-out: PDGFR Cellular IC50
Protocol: Cell Culture and Preparation: Cells are cultured according to ATCC procedure (5) with the addition of the antibiotic penicillin-streptomycin. If working from frozen, cells should be thawed according to ATCC procedure. Depending on the cell density of frozen vial, cells will need time to recover from thaw. An 80% confluent T75 flask should be enough for one 384 well plate.
Stock Solutions: Rat PDGFBB. A 100 ug/mL stock is prepared by reconstituting 50 ug in 500 μL of 4 mM HCl and 0.1% BSA. It can be stored for a month at 4° C., or aliquoted out and frozen in the −20/−80° C. to avoid multiple free-thaw cycles.
1× Cisbio cell lysis buffer. The cell lysis buffer is diluted 4-fold with molecular grade water. The blocking agent is then diluted 25-fold in the diluted lysis buffer.
Antibody solutions. Equal amounts d2 and cryptate antibody are diluted 20-fold in detection buffer.
Rat PDGFBB. A working stock of 100 ng/mL is created from the stock solution in 10% FBS culture media.
Step 1: Plating Cells: Media from the A10 cell flask is aspirated. The cells are rinsed with PBS and then trypsinized to disperse the cell layer. The cells are then pelleted are resuspended to 1.25e5 cells/mL. […] Plates are covered and placed in the incubator (37° C. 5% CO2) overnight to allow cells to adhere.
Step 2: Compound Dispense: Approximately 18 hours after plating, dispense 40 nL compound onto cells using Echo. […] The plate is returned to the incubator for 3 hours.
After 10 minutes the media is removed by flicking the plate.
Step 4: Cell lysis and antibody addition: 20 uL lysis buffer per well is added to the plate via Tempest. 5 uL antibody solution is added per well via the Tempest. The plate is placed on the shaker at 230 rpm for 1 hour at room temperature.
Step 5: Detection: The plate is read using the HTRF module on the BMG Pherastar. Data is analyzed using Genedata Screener.
IC50 values are determined from a 4-parameter fit, using the following equation: Y=Bottom+(Top−Bottom)/(1+10((Log IC50−X)*Hill slope)), where X=log10 of the compound concentration; top can be defined by PC; bottom defined by NC.

[1] = biological target: His6-TEV-PDGFRβ (557-1016) (Homo sapiens (Human), UniProt P09619); test: PDGFRβ HTRF Assay; type: biochemical; details: 800 μM ATP, 0.5 μM TK-substrate biotin peptide, 30 min pre-incubation, 3 hours reaction; read-out: PDGFR HTRF IC50
Sequence of His6-TEV-PDGFRβ (557-1016) (P09619 whole entry, looked up): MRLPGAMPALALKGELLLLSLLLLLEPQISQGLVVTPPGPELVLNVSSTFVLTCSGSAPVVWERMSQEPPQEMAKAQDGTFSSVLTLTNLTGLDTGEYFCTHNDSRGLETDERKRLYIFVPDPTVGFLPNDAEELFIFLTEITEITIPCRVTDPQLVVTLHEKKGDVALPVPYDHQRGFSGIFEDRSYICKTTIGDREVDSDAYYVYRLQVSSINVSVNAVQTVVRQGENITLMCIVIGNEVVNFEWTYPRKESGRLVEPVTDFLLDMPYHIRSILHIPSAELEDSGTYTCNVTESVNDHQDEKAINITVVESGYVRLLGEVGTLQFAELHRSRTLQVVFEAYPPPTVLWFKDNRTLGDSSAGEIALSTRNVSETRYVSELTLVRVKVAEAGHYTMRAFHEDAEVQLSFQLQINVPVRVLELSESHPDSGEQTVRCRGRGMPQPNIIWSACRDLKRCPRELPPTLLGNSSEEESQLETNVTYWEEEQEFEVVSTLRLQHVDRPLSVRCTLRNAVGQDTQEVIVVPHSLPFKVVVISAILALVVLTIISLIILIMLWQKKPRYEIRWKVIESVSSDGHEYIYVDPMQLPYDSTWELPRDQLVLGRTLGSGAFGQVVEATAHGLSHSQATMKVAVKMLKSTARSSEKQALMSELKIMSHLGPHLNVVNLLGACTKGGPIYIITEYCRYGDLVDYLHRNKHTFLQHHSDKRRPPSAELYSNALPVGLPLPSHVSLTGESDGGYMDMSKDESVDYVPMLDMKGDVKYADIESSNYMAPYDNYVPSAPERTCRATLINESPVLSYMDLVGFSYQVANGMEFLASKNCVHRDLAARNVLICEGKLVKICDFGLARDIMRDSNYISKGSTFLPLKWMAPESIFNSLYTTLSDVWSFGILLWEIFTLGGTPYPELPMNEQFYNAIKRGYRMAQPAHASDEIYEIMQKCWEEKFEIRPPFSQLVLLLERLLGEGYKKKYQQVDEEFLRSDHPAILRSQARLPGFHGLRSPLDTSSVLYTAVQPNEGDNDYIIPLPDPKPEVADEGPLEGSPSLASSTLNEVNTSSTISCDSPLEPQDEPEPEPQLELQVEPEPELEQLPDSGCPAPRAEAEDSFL
Protocol: Instrumentation: a. Compound liquid handling: LabCyte Echo; b. Reagent liquid handling: Thermo Scientific Multidrop Combi; c. BMG PHERAStar multilabel plate reader.
Protein Reagent: His6-TEV-PDGFRβ Protein Prep prepared at Accelagen.
Assay buffer stock solution, contains 50 mM Hepes, 10 mM MgCl2, 1 mM EGTA, and 0.01% Brij-35, 0.01% ovalbumin, 2 mM DTT at pH 7.5, in molecular biology grade water. Store at room temperature.
Assay buffer. Dilute 5× Kinase buffer 5-fold with molecular biology grade water and add DTT to 2 mM and ovalbumin to 0.1 mg/mL (or 0.01%).
2× protein solution. Make a working solution of […] PDGFRβ in assay buffer. Keep on ice until use to maintain enzyme stability.
2× substrate solution. Make a working solution of 1.6 mM ATP and 1 μM TK-substrate biotin peptide in assay buffer. 3× quench/detection solution.
Step 2. PDGFRβ E+I pre-incubation: Add 2 μL 2× protein solution to columns 1-24 using the Multidrop Combi. Centrifuge at 1000 rpm for 1 min. Incubate 30 min at RT
Step 2. Enzymatic reaction: Add 2 μL substrate solution to columns 1-24 to initiate the reaction using the Multidrop Combi; cover/seal the assay plate to reduce evaporation. Centrifuge at 1000 rpm for 1 min. Incubate at room temperature for 3 hours.
Final concentrations of components in PDGFRp cascade assay:
0.5 μM TK-substrate biotin peptide
Step 3. Quench/Detection: Add 2 μl 3× quench/detection solution to columns 1-24 using the Multidrop Combi; cover/seal the plate. Centrifuge 1 min 1000 rpm. Incubate at RT for 60 min.
HTRF ratio values calculated by the instrument (Ratio is acceptor counts/donor counts*10,000) is exported from the plate reader and used in data analysis. The exported data will be used to calculate 1) compound activity and 2) assay statistics. […] Assay statistics can include Robust Z′ and Signal to Background.
% Inhibition Calculation: Percent inhibition will be calculated for sample wells based on the equation: […]
IC50 Calculation: For IC50 determination, full 11-point dose response data will be processed using the following equation: […]

[2] = biological target: Tb-labeled inactive PDGFRβ (Homo sapiens (Human), UniProt P09619); test: biochemical; type: binding; details: read-out: PDGFR Lantha IC50
Sequence of Tb-labeled inactive PDGFRβ (P09619 whole entry, looked up): as above

VEGFR2, unphosphorylated = VEGFR2, unphosphorylated (Homo sapiens (Human), UniProt P35968); test: VEGFR ADP GLO assay; type: biochemical; details: 5 nM VEGFR2, 1.2 mM ATP, 1 mg/mL Srctide, 180 min
Sequence of VEGFR2, unphosphorylated (P35968 whole entry, looked up): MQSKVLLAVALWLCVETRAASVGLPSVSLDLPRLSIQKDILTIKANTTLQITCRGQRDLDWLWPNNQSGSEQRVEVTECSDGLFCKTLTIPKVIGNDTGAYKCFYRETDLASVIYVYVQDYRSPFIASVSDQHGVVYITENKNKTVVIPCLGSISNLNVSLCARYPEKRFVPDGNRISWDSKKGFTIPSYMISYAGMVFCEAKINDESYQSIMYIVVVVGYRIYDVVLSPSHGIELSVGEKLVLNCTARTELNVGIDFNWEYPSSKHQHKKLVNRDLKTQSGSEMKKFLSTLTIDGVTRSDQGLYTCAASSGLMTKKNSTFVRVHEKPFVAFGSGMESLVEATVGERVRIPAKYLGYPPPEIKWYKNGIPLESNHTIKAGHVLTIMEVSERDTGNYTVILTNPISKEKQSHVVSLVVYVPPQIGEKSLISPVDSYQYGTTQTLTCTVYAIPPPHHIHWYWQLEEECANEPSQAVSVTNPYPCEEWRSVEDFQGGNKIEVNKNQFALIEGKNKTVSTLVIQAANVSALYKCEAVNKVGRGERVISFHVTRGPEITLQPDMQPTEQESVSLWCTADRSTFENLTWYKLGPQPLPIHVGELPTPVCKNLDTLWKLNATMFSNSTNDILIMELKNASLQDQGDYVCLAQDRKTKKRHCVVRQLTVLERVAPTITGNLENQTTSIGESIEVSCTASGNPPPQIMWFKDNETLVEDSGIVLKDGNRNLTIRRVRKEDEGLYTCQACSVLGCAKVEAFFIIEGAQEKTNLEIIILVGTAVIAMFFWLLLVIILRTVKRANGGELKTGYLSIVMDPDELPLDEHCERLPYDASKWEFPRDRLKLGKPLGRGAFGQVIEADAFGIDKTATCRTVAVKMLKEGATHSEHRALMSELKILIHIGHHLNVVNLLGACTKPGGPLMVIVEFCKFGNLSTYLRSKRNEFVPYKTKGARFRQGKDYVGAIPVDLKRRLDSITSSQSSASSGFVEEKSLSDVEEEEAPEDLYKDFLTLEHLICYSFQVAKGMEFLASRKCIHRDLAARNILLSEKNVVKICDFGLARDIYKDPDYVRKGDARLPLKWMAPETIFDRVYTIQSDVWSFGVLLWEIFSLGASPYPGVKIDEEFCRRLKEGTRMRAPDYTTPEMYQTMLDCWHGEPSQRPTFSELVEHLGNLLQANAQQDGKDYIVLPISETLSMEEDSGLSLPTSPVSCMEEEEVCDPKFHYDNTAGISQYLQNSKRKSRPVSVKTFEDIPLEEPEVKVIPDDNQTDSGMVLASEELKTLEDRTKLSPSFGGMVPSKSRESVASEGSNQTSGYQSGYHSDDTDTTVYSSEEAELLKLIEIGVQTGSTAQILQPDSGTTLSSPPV
Protocol: Assay buffer stock contains 50 mM HEPES pH7.5, 10 mM MgCl2, 0.01% Brij-35, and 1 mM EGTA.
Unphosphorylated VEGFR2. 52.6 μM in 50 mM Tris-HCl, pH 8.0, 50 mM NaCl, 5% Glycerol, 0.5 mM TCEP. Store at −80° C. in aliquots.
10 mg/mL srctide solution, prepared in Assay buffer (Assay buffer stock with 2 mM DTT, 0.1% Pluronic F-127, and 0.1 mg/mL ovalbumin). Sonicate 10 mg/ml Srctide solution for 10 minutes and then vacuum filter.
Assay buffer. Add DTT to 2 mM, Pluronic F-127 to 0.1% and ovalbumin to 0.1 mg/mL to Assay buffer stock.
2× kinase solution. Make a working solution of 10 nM unphosphorylated VEGFR2 in Assay buffer. Vacuum filter 2× kinase solution prior to running assay. Keep on ice until use.
2× substrate/ATP solution. Make a working solution of 2 mg/mL srctide and 2.4 mM ATP in Assay buffer. Keep on ice until use.
Step 1. Dispensing inhibitors/controls: Using Echo, dispense 10 nL/well compound serial dilutions in DMSO to columns 1-22 (in 384-well plates) or columns 1-44 (in 1536-well plates). Dilution series=11 pt, 3-fold dilutions. The top compound concentration in the source plate is 4 mM. The top compound concentration in the assay plate is 10 uM. Using Echo, dispense 10 nl/well DMSO to column 23 (in 384-well plates) or columns 45-47 (in 1536-well plates). These wells will serve as negative control wells Using Echo, dispense 10 nl/well 400 uM TAK-593 in DMSO to column 24 (in 384-well plates) or column 48 (in 1536-well plates). The final concentration of TAK-593 in the assay should be 1 uM. These wells will serve as positive control wells.
Step 2. Pre-incubation of inhibitors with kinase: Add 2 μL/well 2× kinase solution. Centrifuge at 1000 rpm for 1 min. Incubate at room temperature for 30 min.
Step 3. Kinase cascade reaction: Add 2 μL/well 2× substrate/ATP solution to initiate kinase reactions. Centrifuge at 1000 rpm for 1 min. Incubate at room temperature for 180 min.
Final concentrations of components in the assay:
Step 4. Quench: Add 2 uL/well ADP Glo Reagent+0.05% CHAPS. Centrifuge at 1000 rpm for 1 min; Incubate at room temperature for one hour.
Step 5. Detection: Add 2 uL/well Kinase Detection Reagent+0.05% CHAPS. Centrifuge at 1000 rpm for 1 min; Incubate at room temperature for 1 hour; Read Luminescence on a plate reader.
% Inhibition: % Inhibition=(NC−sample)/(NC−PC)*100 where NC is the mean of negative control (reactions without inhibitor), and PC is the mean of positive control (1 μM TAK-593).
IC50 values are determined from a 4-parameter fit, using the following equation: Y=Bottom+(Top−Bottom)/(1+10^(Log IC50-X)*Hill Slope), where X=log10 of the compound concentration; top can be defined by PC; bottom defined by NC.

Sequence of PDGFRβ (Q05030 whole entry, looked up): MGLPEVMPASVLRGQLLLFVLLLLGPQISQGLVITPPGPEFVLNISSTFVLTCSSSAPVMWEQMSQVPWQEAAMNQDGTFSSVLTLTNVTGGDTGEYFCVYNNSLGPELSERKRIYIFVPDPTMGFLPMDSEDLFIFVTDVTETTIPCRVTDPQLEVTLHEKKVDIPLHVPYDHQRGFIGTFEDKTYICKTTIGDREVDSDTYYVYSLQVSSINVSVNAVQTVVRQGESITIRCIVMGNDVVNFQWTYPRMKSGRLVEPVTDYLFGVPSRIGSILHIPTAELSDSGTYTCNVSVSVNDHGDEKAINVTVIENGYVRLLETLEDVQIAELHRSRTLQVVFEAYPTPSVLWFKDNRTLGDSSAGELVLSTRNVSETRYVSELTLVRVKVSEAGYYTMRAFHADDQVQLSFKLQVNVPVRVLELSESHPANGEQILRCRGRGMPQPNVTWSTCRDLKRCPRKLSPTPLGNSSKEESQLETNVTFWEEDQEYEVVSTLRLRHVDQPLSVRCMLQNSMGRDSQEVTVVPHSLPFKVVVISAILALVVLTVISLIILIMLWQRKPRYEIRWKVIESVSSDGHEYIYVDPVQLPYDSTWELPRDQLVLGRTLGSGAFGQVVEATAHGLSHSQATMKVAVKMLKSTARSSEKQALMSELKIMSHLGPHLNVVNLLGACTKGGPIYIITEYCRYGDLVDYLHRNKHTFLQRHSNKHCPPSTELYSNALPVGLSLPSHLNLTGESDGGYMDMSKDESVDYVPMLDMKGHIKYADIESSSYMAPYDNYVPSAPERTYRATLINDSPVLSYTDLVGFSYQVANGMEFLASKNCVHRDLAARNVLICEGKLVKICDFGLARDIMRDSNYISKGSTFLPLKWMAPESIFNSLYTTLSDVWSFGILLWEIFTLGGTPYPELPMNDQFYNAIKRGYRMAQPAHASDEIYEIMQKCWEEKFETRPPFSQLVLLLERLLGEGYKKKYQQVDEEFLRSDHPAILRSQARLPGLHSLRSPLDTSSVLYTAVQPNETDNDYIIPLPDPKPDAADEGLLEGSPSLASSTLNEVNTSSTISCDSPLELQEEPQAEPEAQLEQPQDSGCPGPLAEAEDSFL

Compound	IC50 (PDGFRβ) [nM]	IC50 [1] [nM]	IC50 [2] [nM]	IC50 (VEGFR2, unphosphorylated) [nM]
2-(3,3-dimethylazetidin-1-yl)-N-(6-methyl-5-((1-methyl-6-((1-methyl-1H-imidazol-4-yl)amino)-1H-pyrazolo[3,4-d]pyrimidin-3-yl)amino)pyridin-3-yl)acetamide [Example 141]	9.4	1.4	12.5	> 7500
Cc1ncc(C(=O)NCCN2C[C@H](C)O[C@@H](C)C2)cc1Nc1nn(C)c2nc(Nc3cnn(C)c3)ncc12 (relative stereo) [Example 92, N-(2-(trans-2,6-dimethylmorpholino)ethyl)-6-methyl-5-((1-methyl-6-((1-methyl-1H-pyrazol-4-yl)amino)-1H-pyrazolo[3,4-d]pyrimidin-3-yl)amino)nicotinamide]	22.8	0.69	4.3	6700
Cc1ncc(C(=O)NCCN2[C@H](C)COC[C@H]2C)cc1Nc1nn(C)c2nc(Nc3cnn(C)c3)ncc12 (relative stereo) [Example 94, N-(2-(trans-3,5-dimethylmorpholino)ethyl)-6-methyl-5-((1-methyl-6-((1-methyl-1H-pyrazol-4-yl)amino)-1H-pyrazolo[3,4-d]pyrimidin-3-yl)amino)nicotinamide]	13.9	0.33	2.1	1170
Cc1ncc(C(=O)NCCN2CCC(F)(F)CC2)cc1Nc1nn(C)c2nc(Nc3cncnc3)ncc12 [Example 1, N-(2-(4,4-difluoropiperidin-1-yl)ethyl)-6-methyl-5-((1-methyl-6-(pyrimidin-5-ylamino)-1H-pyrazolo[3,4-d]pyrimidin-3-yl)amino)nicotinamide]	12	0.65	3.3	> 7500
Cc1ncc(C(=O)NCCN2CCCC(F)(F)C2)cc1Nc1nn(C)c2nc(Nc3cncnc3)ncc12 [Example 2, N-(2-(3,3-difluoropiperidin-1-yl)ethyl)-6-methyl-5-((1-methyl-6-(pyrimidin-5-ylamino)-1H-pyrazolo[3,4-d]pyrimidin-3-yl)amino)nicotinamide]	27.1	0.57	3.7	> 7500
Cc1ncc(C(=O)NCCN2CCC[C@@H]2C)cc1Nc1nn(C)c2nc(Nc3cncnc3)ncc12 [Example 3, (S)-6-methyl-5-((1-methyl-6-(pyrimidin-5-ylamino)-1H-pyrazolo [3,4-d]pyrimidin-3-yl)amino)-N-(2-(2-methylpyrrolidin-1-yl)ethyl)nicotinamide]	113	0.68	6.8	> 7500
Cc1ncc(C(=O)NCCN2CCCC23CCC3)cc1Nc1nn(C)c2nc(Nc3cncnc3)ncc12 [Example 4, N-(2-(5-azaspiro[3.4]octan-5-yl)ethyl)-6-methyl-5-((1-methyl-6-(pyrimidin-5-ylamino)-1H-pyrazolo[3,4-d]pyrimidin-3-yl)amino)nicotinamide]	14.5	0.46	3.2	> 7500
Cc1ncc(C(=O)NCCN2CCCC[C@@H]2C)cc1Nc1nn(C)c2nc(Nc3cncnc3)ncc12 [Example 5, (S)-6-methyl-5-((1-methyl-6-(pyrimidin-5-ylamino)-1H-pyrazolo[3,4-d]pyrimidin-3-yl)amino)-N-(2-(2-methylpiperidin-1-yl)ethyl)nicotinamide]	67.5	0.65	5.3	2070
Cc1ncc(C(=O)NCCN2CC3CCC2CC3)cc1Nc1nn(C)c2nc(Nc3cncnc3)ncc12 [Example 6, N-(2-(2-azabicyclo[2.2.2]octan-2-yl)ethyl)-6-methyl-5-((1-methyl-6-(pyrimidin-5-ylamino)-1H-pyrazolo[3,4-d]pyrimidin-3-yl)amino)nicotinamide]	102	0.59	5.2	> 7500
Cc1ncc(C(=O)NCCN2CCC3(CCC3)CC2)cc1Nc1nn(C)c2nc(Nc3cncnc3)ncc12 [Example 7, N-(2-(7-azaspiro[3.5]nonan-7-yl)ethyl)-6-methyl-5-((1-methyl-6-(pyrimidin-5-ylamino)-1H-pyrazolo[3,4-d]pyrimidin-3-yl)amino)nicotinamide]	32.7	0.48	6.7	> 7500
Cc1ncc(C(=O)NCCN2CCC(C)(C)C2)cc1Nc1nn(C)c2nc(Nc3cncnc3)ncc12 [Example 8, N-(2-(3,3-dimethylpyrrolidin-1-yl)ethyl)-6-methyl-5-((1-methyl-6-(pyrimidin-5-ylamino)-1H-pyrazolo[3,4-d]pyrimidin-3-yl)amino)nicotinamide]	48	0.39	5.8	> 7500
